Reference: patent US10525056B2, “Procaspase-activating compounds and methods” (The Board of Trustees of the University of Illinois, priority 2011, dated 2020)
Like-named read-outs stand apart in the source and are kept apart here.

Assays:
[1] = test system: U-937 human lymphoma cells; experiment: 72 Hour IC50 Cell Death Assay (sulforhodamine B); assay type: cell-based; details: read-out: 72-hour IC50 (μM), U-937 cells, 72 h treatment, average ± SEM of three experiments
Description: U-937 human lymphoma cells were plated into the wells of 96 well plate at a density of 15,000 cells per well in 99 μL of RPMI 1640 growth media with 10% FBS and 1% pen-strep. To each well was added 1 μL of compound stock solutions in DMSO at varying concentrations such that the cells were treated with concentrations between 0 μM and 100 μM compound. Each concentration was tested in quintuplicate per plate. In each plate 5 wells received 20 μM doxorubicin as a positive death control and 5 wells received […] as a negative control.
After the 72 hour incubation period, the plates were analyzed using a Sulforhodamine B assay (Vichai and Kirtikara, Nat Protoc 2006, 1, 1112-1116). Specifically, to each well of the plate 25 μL of a 50% (w/v) solution of trichloroacetic acid in H2O was added and the plates were incubated for 4 hours at 4° C. The plates were then washed gently with water five times. The plates were allowed to air dry after which 100 μL of a 0.057% (w/v) Sulforhodamine B in a 1% (v/v) acetic acid solution was added to each well for 30 minutes at room temperature. The plates were gently washed 5 times with 1% (v/v) acetic acid and air dried. 200 μL of 10 mM Tris base (pH 10.4) was added to each well and the plates were placed on an orbital shaker for thirty minutes. The level of SRB was quantified fluorometrically at excitation and emission wavelengths 488 and 585 nm, respectively, on a Molecular Devices plate reader and the percent cell death calculated and normalized to the positive control (100% cell death) and the negative control (0% cell death). The percent cell death was averaged for each compound concentration and plotted as a function of compound concentration. The data were fit to a logistical dose response curve using Table curve 2D and the IC50 value was calculated. The experiment was repeated three times and the average of the calculated IC50 values was reported. The standard error of the mean (SEM) was determined and reported for the triplicate experiments.

[2] = test system: U-937 cells; experiment: Induction of apoptosis by hit compounds (Annexin V-FITC/propidium iodide flow cytometry); assay type: cell-based; details: Homo sapiens, 7.5 μM compound, 24 hours
Description: U-937 Cells (1 mL of 6×10^5 cells/mL) were treated with 10 μL of 750 μM DMSO solutions of the compounds to achieve a final concentration of 7.5 μM. […] The cells were harvested via centrifugation (200 g for 5 minutes), washed with PBS (2 mL), and resuspended in 450 μL Annexin V Binding Buffer. To each sample was added 3.5 μL of FITC conjugated Annexin V stain (Southern Biotech) and 3.5 μL of propidium iodide (Sigma) to a final concentration of 50 μg/mL. Cell populations were analyzed on a Benton Dickinson LSR II cell flow cytometer.

[3] = research dogs, for 48 hours; cited from earlier work
[4] = test system: U-937 human lymphoma cells; experiment: Cell death assay for initial screen (Annexin V-FITC/propidium iodide flow cytometry); assay type: cell-based; details: U-937 cells, 20 μM compound, 24 hours
Description: Apoptotic cell death was assessed by flow cytometry, using Annexin V-FITC/propidium iodide staining.
Compound (2 μL of a 10 mM DMSO solution) was added in singlet by direct addition to a well containing 998 μL U-937 cells (1×10^6) in RPMI 1640 media (10% FBS) at a final compound concentration of 20 μM. […] The cells were double stained with FITC-Annexin V and propidium iodide and a cell population of at least 10,000 events was collected by the LSR II flow cytometer. Percent viable cells (Annexin V—negative, propidium iodide—negative) were determined using FCS Express software.

[5] = mice, for 48 hours; cited from earlier work

SMILES	IC50 [1] [µM]	cytotoxicity at 7.5 µM [2] [%]	serum concentration at doses that can be safely administered [3] [µM]	% cell death [4] [%]	serum concentration at doses that can be safely administered [5] [µM]
COc1ccc(CN2CCN(CC(=O)N/N=C/c3cc(C(C)(C)C)cc(C(C)(C)C)c3O)CC2)cc1 [3{2,7}, N′-(3,5-di-tert-butyl-2-hydroxybenzylidene)-2-(4-(4-methoxybenzyl)piperazin-1-yl)acetohydrazide]	1.8 ± 0.2	90			
COc1ccc(OC)c(CN2CCN(CC(=O)N/N=C/c3cc(C(C)(C)C)cc(C(C)(C)C)c3O)CC2)c1 [3{4,7}, N′-(3,5-di-tert-butyl-2-hydroxybenzylidene)-2-(4-(2,5-dimethoxybenzyl)piperazin-1-yl)acetohydrazide]	1.6 ± 0.2	53			
CC(C)(C)c1cc(/C=N/NC(=O)CN2CCN(Cc3ccc(OCc4ccccc4)cc3)CC2)c(O)c(C(C)(C)C)c1 [3{18,7}, 2-(4-(4-(benzyloxy)benzyl)piperazin-1-yl)-N′-(3,5-di-tert-butyl-2-hydroxybenzylidene)acetohydrazide]	1.4 ± 0.2	97			
C=CCc1cccc(/C=N/NC(=O)CN2CCN(Cc3ccc(C(C)(C)C)cc3)CC2)c1O [3{20,24}, N′-(3-allyl-2-hydroxybenzylidene)-2-(4-(4-(tert-butyl)benzyl)piperazin-1-yl)acetohydrazide]	0.9 ± 0.03	83			
CC(C)(C)c1cc(/C=N/NC(=O)CN2CCN(Cc3ccc4ccccc4c3)CC2)c(O)c(C(C)(C)C)c1 [3{25,7}, N′-(3,5-di-tert-butyl-2-hydroxybenzylidene)-2-(4-(naphthalen-2-ylmethyl)piperazin-1-yl)acetohydrazide]	1 ± 0.04	50			
CCc1ccc(CN2CCN(CC(=O)N/N=C/c3cc(C(C)(C)C)cc(C(C)(C)C)c3O)CC2)cc1 [3{28,7}, N′-(3,5-di-tert-butyl-2-hydroxybenzylidene)-2-(4-(4-ethylbenzyl)piperazin-1-yl)acetohydrazide]	2 ± 0.2	70			
C=CCc1cccc(/C=N/NC(=O)CN2CCN(Cc3ccccc3)CC2)c1O [PAC-1]	3.8 ± 0.4	21	~10	~50	~10
